A short description of series [1]: Sandwich ELISA quantification of topically instilled peptide in retinal extract. It is filed as in vivo, Sprague-Dawley rats. The following applies: for roughly equivalent concentration of the peptide in the intracellular space: converted from ELISA value; for concentration of the Tat-μCL in the retina: 1 mM, 20 μl eye drops twice a day for 7 days, whole retina extract, sandwich ELISA, average ± SD, n = 6 eyes (6 rats). The procedure:
(§1) Every effort was taken to minimize suffering. […] Animals were randomly allocated into experimental or control group.
The amount of the peptide delivered to the retina was quantified by sandwich ELISA as per a previously reported method. In this procedure, we first added 50 μl of rabbit polyclonal anti-HIV1 tat antibody (1:2000, ab43014, Abcam) diluted with 0.05 M carbonate-bicarbonate buffer, pH 9.6, to 96-well immunoplates (Nunc, Roskilde, Denmark). After incubating the plates overnight at 4°C, the plates were washed three times with PBS-T, and then incubated with PBS-T containing 10% bovine serum albumin (BSA) at 37°C for 2 h. Subsequently, we then washed the plates with PBS and incubated the plates with 50 μl of retinal extract or standard peptide (100 amol, 1 fmol, 10 fmol, 100 fmol, 1 pmol, 10 pmol, 100 pmol and 1 nmol Tat-μCL) diluted with PBS-T containing 10% BSA at 37°C for 2 h. The retinal extract was obtained by sonication and gradual centrifugations at 600×g for 5 min, 4,500×g for 10 min, and 20,000×g for 20 min. The supernatant of the final centrifugation was used as the retinal extract. The protein concentration was measured by the Bradford’s assay with bovine serum albumin used as the standard. After washing the plate three times with PBS-T, the plates were incubated with 50 μl of mouse monoclonal anti-HIV1 tat antibody (1:1000, ab63957, Abcam) diluted with PBS-T containing 10% BSA at 37°C for 2 h. Subsequently, the plates were then washed three times with PBS-T and incubated with horse radish peroxidase (HRP)-conjugated rabbit anti-mouse IgG (1:1000) diluted with PBS-T containing 10% BSA at 37°C for 2 h. After incubation, the plates were washed three times with PBS-T and then once with distilled water. The reaction was performed by incubating the plates with 50 μl of citrate-phosphate buffer, pH 5.0, containing 0.04% o-phenylenediamine and 0.006% hydrogen peroxide. Color development was inhibited by the addition of 50 μl of 2.4 M sulfuric acid. Absorbance was determined at 492 nm.
All statistical analyses were conducted using the SPSS version 22 software program (IBM, Armonk, NY). A one-way ANOVA was used to statistically compare the results between multiple groups. And then, as a post hoc analysis, a Dunnett T3 test was used to determine significance between the two groups. In the present study, P < 0.05 was considered statistically significant. Experiments were performed in triplicate to confirm the reproducibility.
A general note: In an ELISA, binding on a coated surface is turned into a signal by an enzyme label.

Series [2] is described as follows: Immunohistochemical distribution of topically instilled peptide in and around the eye (anti-HIV1 tat antibody). The following applies: for distribution of topically instilled peptide (immunoreactivity): n = 3 eyes (3 rats). The format is in vivo, Sprague-Dawley rats. On the procedure: as §1
Distribution of the peptide was analyzed by immune-positive reactions observed in and around the rat eyes. Immunohistochemical experiments were performed in line with our previously reported method. Briefly, rats were euthanized after the final eye drop instillation by inhalation of carbon dioxide at 1, 3 and 6 h. Eyes were immediately enucleated after euthanasia. For the immunohistochemistry, eyes were fixed in 4% paraformaldehyde in phosphate-buffered saline (PBS), pH 7.4, for 20 min at room temperature. Eyes were then placed in the fixative overnight at 4°C. Specimens were cryoprotected for 4 h in 10% then 20% sucrose in PBS, and then frozen in OCT compound. […] The sections were rinsed in PBS and blocked with 1% skim milk in PBS containing 0.05% Tween (PBS-T) for 2 h at room temperature. Sections were incubated overnight at 4°C with the mouse monoclonal antibody raised against HIV1 tat (ab63957, 1:200, Abcam, Cambridge, UK) diluted in 1% skim milk in PBS-T as the primary antibody. Sections were then washed with PBS-T and incubated with tetramethylrhodamine isothiocyanate isomer R (TRITC)-conjugated rabbit anti-mouse IgG (R0270, 1:200, Dako, Glostrup, Denmark) overnight at 4°C. Sections were washed with PBS-T and nuclei were counterstained with 4’ 6-diamidino-2-phenylindole (DAPI). Immunofluorescent images were obtained by laser confocal microscopy (FV1000-D; Olympus, Tokyo, Japan).

The conditions of series [3]: 1 mM eye drops twice a day for 7 days, adult female SD rats.
Experimental: We performed topical instillation (20 μl) of 1 mM Tat-μCL dissolved in a sterile saline solution (pH 7.4) twice a day (9 a.m. and 5 p.m.) for 7 days in both eyes of adult female SD rats (3-month-old, weighing 350–400g) without anesthesia. […] Topical application was performed in home cages using a micropipette tip with residual liquid around the eyelids wiped off by a cotton swab. Every effort was taken to minimize suffering. Before the rat eyes were enucleated, rats were euthanized with inhalation of carbon dioxide. […] At each time point, 6 rats were examined, with 3 out of the 6 right eyes used for the immunohistochemistry and all of the left eyes used for the biochemical analyses. As a control, 3 rats were topically administered sterile saline for bilaterally using the same methods described above. Animals were randomly allocated into experimental or control group. Every effort was taken to reduce the number of animal used.
The test system of the next series is photoreceptors. The following applies: topical instillation of 1 mM eye drops, rhodopsin P23H transgenic rats; cited from earlier work. An excerpt:
Every effort was taken to minimize suffering. Before the rat eyes ... || Calpains are members of the Ca^2+-activated cysteine proteinases and play important roles in various physiological and pathological pathways, such as regulating signal transductions, the cell cycle, cell adhesion, gene expression, and cell death.

For series [4] the following is noted: rat, in vivo; cited from earlier work.

Where a SMILES comes first, the peptide text is derived from it.

Regarding `CC(C)C[C@H](NC(=O)[C@H](C)NC(=O)[C@H](CC(=O)O)NC(=O)[C@@H]1CCCN1C(=O)[C@H](CCC(N)=O)NC(=O)[C@@H]1CCCN1C(=O)[C@@H]1CCCN1C(=O)[C@H](CCCNC(=N)N)NC(=O)[C@H](CCCNC(=N)N)NC(=O)[C@H](CCCNC(=N)N)NC(=O)[C@H](CCC(N)=O)NC(=O)[C@H](CCCNC(=N)N)NC(=O)[C@H](CCCNC(=N)N)NC(=O)[C@H](CCCCN)NC(=O)[C@H](CCCCN)NC(=O)[C@H](CCCNC(=N)N)NC(=O)CN)C(=O)N[C@@H](CCCCN)C(=O)N[C@@H](CO)C(=O)N[C@@H](CCCNC(=N)N)C(=O)N[C@H](C(=O)N[C@@H](CC(C)C)C(=O)N[C@@H](CCCNC(=N)N)C(=O)O)[C@@H](C)O` [Tat-μCL] (H-GRKKRRQRRRPPQPDALKSRTLR-OH), the entries for the “roughly equivalent concentration of the peptide in the intracellular space” value in series [1] (1 h after final eye drops), in series [1] (3 h after final eye drops) and in series [1] (6 h after final eye drops) were about 4.48 µM, about 1.70 µM and about 0.29 µM, respectively. Further, the “concentration of the Tat-μCL in the retina” value stood at 15.3 pg/μg protein in series [1] (1 h after final instillation), 5.8 pg/μg protein in series [1] (3 h after final instillation) and 1.0 pg/μg protein in series [1] (6 h after final instillation). The “time for which sufficient concentration (> IC50) is maintained in the rat retina” value in series [1] (after final application of 1 mM eye drops) is “at least 6 h”. The “half-life of Tat-μCL in the rat retina” value in series [1] (estimated from ELISA results (Fig 4), topical 1 mM eye drops) is reported as “approximately 2.6 h”. In addition, the “time after final application of most prominent immunoreactivity” value in series [2] (anterior segment tissues, examined at 1 and 3 h) came to 1 h. In addition, the “distribution of topically instilled peptide (immunoreactivity)” value in series [2] (anterior segment) was “diffusely distributed in the various tissues including the cornea, sclera, iris, ciliary body, choroid and retinal pigment epithelium (RPE)”; in series [2] (optic disc area) it was “detected in the optic nerve, optic nerve sheath, optic disc, all layers of the retina, and the retrobulbar connective tissues”; in series [2] (posterior segment) it was “diffusely distributed throughout the retina, including the photoreceptor outer segments, outer nuclear layer, inner nuclear layer, and ganglion cell layer”. In series [2] (optic disc area, examined at 1, 3 and 6 h), the “time after final instillation of most prevalent immunoreactivity” value amounted to 1 h. Moreover, in series [2] (posterior segment, examined at 1, 3 and 6 h), the “time after final application of most abundant immunoreactivity” value was 1 h. For the same molecule, the adverse effects entry in series [3] is recorded as “without any adverse effects”; with photoreceptors it was “without causing any adverse effects”.

With nerve growth factor, in series [4], the “time of peak in the retina after eye drop application” value is 6 h.

(Values after article PMC4479448, “Delivery of Topically Applied Calpain Inhibitory Peptide to the Posterior Segment of the Rat Eye” (PLoS ONE, 2015).)
